The test system of the assay is hEPO protein expression. Description: In vivo expression of hEPO after IM injection of hEPO mRNA lipid nanoparticles (serum ELISA). Conditions: LNP with hEPO mRNA, cationic lipid, DMG-PEG2000, cholesterol, DOPE, single IM injection into gastrocnemius, 0.1 ug, male BALB/c mice, FIG. 1. Here is the method: Lipid nanoparticle formulations comprising human erythropoietin (hEPO) mRNA, a cationic Lipid, DMG-PEG2000, cholesterol and DOPE were administered intramuscularly to study mRNA delivery and resultant hEPO expression. Male BALB/c mice at 6-8 weeks old are given a single injection of the LNP formulations into the gastrocnemius muscle at a dosage level of 0.1 ug. Blood samples were collected at 6 and 24 hours post-dose. hEPO protein expression levels were measured in the sera samples by ELISA and presented in FIG. 1.
A general note: An ELISA detects its analyte on a solid surface through an enzyme-linked reagent.

For the compound `CCCCCCCCC(O)CN(CCSC(=O)[C@H]1CC[C@H](C(=O)SCCN(CC(O)CCCCCCCC)CC(O)CCCCCCCC)CC1)CC(O)CCCCCCCC` (stereo partly drawn) [Compound 79], the “in vivo protein production (hEPO protein expression levels in sera)” value (“in vivo protein production” for short) (6 hours after administration) was “high levels of in vivo protein production”.

For `CCCCCCCCCCC(O)CN(CCSC(=O)c1ccc(C(=O)SCCN(CC(O)CCCCCCCCCC)CC(O)CCCCCCCCCC)cc1)CC(O)CCCCCCCCCC` (stereo not drawn) [Compound 98], the “in vivo protein production” value (6 hours after administration) is “high levels of in vivo protein production” and the “in vivo protein production” value (24 hours after administration) is “high levels of in vivo protein production”.

Values taken from patent publication US12453759B2, “Di-thioester cationic lipids” (TRANSLATE BIO, INC., priority 2019, dated 2025).
